# Experimental data reported in patent publication US20070255041A1, “Bioengineered Vehicles for Targeted Nucleic Acid Delivery” (priority 2000, published 2007).
# What was measured:
# [1] = system: plasmid DNA (pGL-control or pXL3031); experiment: Gel mobility shift analysis of complex formation with plasmid DNA; assay type: binding; details: 5.8 pmole (360 ng) conjugate; FIG. 18
# Experimental: The ability of the anti-erbB-2 C6ML3-9 sFv′-salmone protamine (SP) conjugates to complex with plasmid DNA was tested by a gel mobility shift analysis.
# The DNA was added last, and the mixture incubated on ice for 1 to 1.5 hour (in the case of kinetics studies, incubation time was from 5 minutes to 60 minutes as indicated). 2 μl of loading buffer (50% glycerol in 1×TE with dye) was added to the 20 μl reaction. The reaction was electrophoresed on 0.8% agarose gel in 1×TAE, 150 V for about an hour at room temperature and stained with EtBr overnight.
# [2] = system: SK-OV-3 cells; experiment: Luciferase reporter gene delivery to erbB-2 positive cells; assay type: cell-based, human
# Experimental: Gene delivery experiments were carried out with the anti-erbB-2 sFv′-[salmon protamine]-DNA complex (C6.5 sFv′-SP-DNA or C6ML3-9 sFv′-SP-DNA). The reporter DNA plasmid was the pGL3-control from Promega, which encodes the luciferase gene under control of the SV40 early promoter and enhancers. The erbB-2 positive cell line used in the study was SK-OV-3, a human ovarian cancer cell line. 200 ng of pGL3 reporter plasmid DNA was incubated with increasing amounts of either the sFv′-[salmon protamine] conjugates (sFv′-SP), or the sFv′ mixed with salmon protamine (SP) alone as described. Formation of the protein-DNA complex was confirmed by gel mobility shift analysis (data not shown). The mixture of protein and DNA were then incubated with SK-OV-3 cells in the absence or presence of 100 μM chloroquine. The protein-DNA mixture was removed from the cell culture after a 20 hour incubation. Cells were harvested for luciferase assays at about 40 hours post-incubation using a Dynex MLX Luminometer. The experiment data presented are an averaged data from quadruplet samples of a typical experiment.
# [3] = system: MCF-7 cells; experiment: Luciferase reporter gene delivery to erbB-2 negative control cells; assay type: cell-based; details: FIG. 19
# [4] = system: SK-OV-3 cells; experiment: pGeneGrip Rhodamine/GFP plasmid delivery, fluorescent microscopy, erbB-2 positive cells; assay type: cell-based, human; details: SK-OV-3, at 48 hours
# Source text: pGeneGrip Rhodamine/GFP plasmid (Gene Therapy Systems) was used as another reporter plasmid for studying C6.5 sFv′-SP and C6ML3-9 sFv′-SP-mediated gene delivery. In this case, plasmid DNA encoding green fluorescent protein (GFP) was labeled with rhodamine, which allows one to follow internalization of the plasmid DNA as well as the expression of GFP. This reporter facilitated evaluation of the gene delivery efficiency at both DNA and protein expression levels. […] SK-OV-3 and MCF-7 cells were incubated with the protein/DNA complexes and fixed at 6, 24, 48, and 72 hours post-incubation for fluorescent microscopy. FIG. 21 represents the data from the 48 hour time point. […] The rhodamine labeled DNA could be seen inside of SK-OV-3 cells at 24 hours (data not shown). However, the GFP gene expression, was very low, about 1-2% cells being GFP positive in the case of C6ML3-9 sFv′-SP-mediated delivery at 48 hours. It should be noted that, although low, GFP expression level still correlates with the amount of DNA inside of the cells (FIG. 21, compare C6.5 sFv′-SP-DNA with that C6ML3-9 sFv′-SP-DNA). […] The low expression of GFP may be caused by the difficulty of plasmid DNA either escaping from the endosomes or reaching the nucleus.
# [5] = system: 3T3 cells (c-erbB-2 non-expressing); experiment: Transfection of 3T3 cells with pXL3031 luciferase plasmid; assay type: cell-based; details: 10% serum, mean of three measures
# Experimental: (§1) Transfections were done using C6.5-H1, C6ML3-9 sFv′-H1, C6ML3-9 sFv′-P1 (comprising C6ML3-9 coupled to human protamine P1 peptide) and C6ML3-9 sFv′-salmon protamine (C6ML3-9-SP). Conjugates were mixed in […] with pXL3031 (pCOR Luc^+) reporter plasmid at different ratios and, after a 10 minute incubation, used to transfect c-erbB-2 expressing (3T3-HER2) or non-expressing (3T3) cell lines. Transfection were performed in the presence of 10% fetal calf serum (FCS) for 3T3-HER2, or 10% calf serum (CS) for 3T3. After 24 hours of incubation, cells were washed twice with PBS and lysed with 200 μl of cell culture lysis reagent (Promega). Luciferase expression was quantified using a luciferase assay kit (Promega) and a Lumat LB9501 luminometer (EG and G). Light emission (RLU) was normalized to the protein concentration of each sample, measured using the Pierce BCA assay. Conditions of transfection are summarized below for each experiment.
# (§2) All transfections were done in the presence of 10% serum. Best transfection conditions are indicated for each compound. All complexes with sFv′ conjugates were formed in 20 mM NaCl, and all complexes with RPR120535 were formed in 20 mM NaHCO3150 mM NaCl. Values correspond to the mean of three different measures of the same assay.
# [6] = system: 3T3-HER2 cells (c-erbB-2 expressing); experiment: Transfection of 3T3-HER2 cells with pXL3031 luciferase plasmid; assay type: cell-based; details: for RLU/μg of cell proteins: 10% serum, mean of three measures
# Experimental: as §1, §2
# [7] = 3T3-HER2, 7 μg/μg of DNA, no chloroquine
molecule,measurement,setting,value
C6ML3-9 sFv′-SP: C6ML3-9 sFv′ coupled via Sulfo-SMCC at its C-terminal sulfhydryl to salmon protamine,time in which the conjugate-DNA complex could form,[1],5 min
same,luciferase gene delivery to SK-OV-3 cells,"[2]; 200 ng pGL3-control plasmid, 20 hour incubation, luciferase assay about 40 hours post-incubation, FIG. 19",delivered luciferase reporter plasmids into SK-OV-3 cells
same,chloroquine dependence of luciferase gene delivery to SK-OV-3 cells,"[2]; absence or presence of 100 μM chloroquine, FIG. 20",chloroquine-dependent
same,luciferase gene delivery to SK-OV-3 cells after pre-incubating the cells with free C6ML3-9 sFv′,"[2]; competition, data not shown",could be competed away
same,luciferase activity in MCF-7 cells (erbB-2 negative control),[3],minimal luciferase activity
same,cells being GFP positive (GFP gene expression),[4],1-2%
same,RLU/μg of cell proteins,"[5]; 4 μg/μg of DNA, 200 μM chloroquine",1080 (±715) RLU/μg of cell proteins
same,RLU/μg of cell proteins,"[6]; 3T3-HER2, 4 μg/μg of DNA, 200 μM chloroquine",220000 (±20000) RLU/μg of cell proteins
"CCCCCCCCCCCCCCCCCCN(CCCCCCCCCCCCCCCCCC)C(=O)CNC(=O)CNCCCNCCCCNCCCN [RPR120535, reference compound]",RLU/μg of cell proteins,"[5]; 6 nmoles/μg of DNA, no chloroquine",26100000 RLU/μg of cell proteins
same,RLU/μg of cell proteins,"[6]; 3T3-HER2, 6 nmoles/μg of DNA, no chloroquine",2980000 RLU/μg of cell proteins
C6ML3-9 sFv′-H1: C6ML3-9 sFv′ reacted with maleimide-H1 peptide (residues 166 to 192 of human histone H1),RLU/μg of cell proteins,"[5]; 7 μg/μg of DNA, no chloroquine",0 (±0) RLU/μg of cell proteins
same,RLU/μg of cell proteins,[6]; [7],27400 (±6030) RLU/μg of cell proteins
same,increase in transfection efficiency,"[6]; 3T3-HER2, increasing conjugate to DNA mass ratio from 4 to 10, FIG. 26",10 fold
same,transfection activity on addition of free C6ML3-9 sFv′ or C6ML3-9 sFv′-H1 complexed to pBks plasmid,"[6]; competition, specificity of gene transfer, FIG. 25",could be reduced
C6ML3-9 sFv′-P1: C6ML3-9 coupled to human protamine P1 peptide (residues 11 to 28),RLU/μg of cell proteins,"[5]; 6 μg/μg of DNA, 150 μM chloroquine",9 (±15) RLU/μg of cell proteins
same,RLU/μg of cell proteins,"[6]; 3T3-HER2, 6 μg/μg of DNA, 150 μM chloroquine",10024 (±3757) RLU/μg of cell proteins
C6.5-H1: C6.5 sFv′ conjugated to the human histone H1 peptide (conjugate) scFv: QVQLLQSGAELKKPGESLKISCKGSGYSFTSYWIAWVRQMPGKGLEYMGLIYPGDSDTKYSPSFQGQVTISVDKSVSTAYLQWSSLKPSDSAVYFCARHDVGYCSSSNCAKWPEYFQHWGQGTLVTVSSGGGGSGGGGSGGGGSQSVLTQPPSVSAAPGQKVTISCSGSSSNIGNNYVSWYQQLPGTAPKLLIYGHTNRPAGVPDRFSGSKSGTSASLAISGFRSEDEADYYCAAWDDSLSGWVFGGGTKLTVLGHHHHHHGGGGC peptide: AKKAKSPKKAKAAKPKKAPKSPAKAK,RLU/μg of cell proteins,"[5]; 7 μg/μg of DNA, no chloroquine",6 (±7) RLU/μg of cell proteins
same,RLU/μg of cell proteins,[6]; [7],659 (±240) RLU/μg of cell proteins
